Consider 28 molecules from patent US9499535B2, “Kinase inhibitors” (ORIGENIS GMBH, priority 2011, dated 2016).

A value given as a limit tells only on which side of the number the result lay.

In one assay the target is LRRK2 (Homo sapiens, UniProt Q5S007). Kind of assay: LRRK2 assay (LanthaScreen Eu Kinase Binding Assay). To be noted: 5 nM LRRK2, 10 nM tracer 236, RT 1 h; read-out: LRRK2 Activites: IC50. An outline of the steps:
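IC50 was derived from a sigmoidal dose-response fit with variable slope, plotting emission ratio against inhibitor concentration. The read-out is loss of FRET between a europium-labelled anti-tag antibody on the kinase and a tracer displaced by inhibitor.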
For orientation: In TR-FRET formats the signal depends on donor and acceptor labels being close together.

The next assay concerns the target MYLK (Homo sapiens, UniProt Q15746). The experiment in a line: MYLK assay (LanthaScreen Eu Kinase Binding Assay). To be noted: 5 nM MYLK, 30 nM tracer 236, RT 1 h; read-out: MYLK Activites: IC50. The essentials:
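TR-FRET tracer-displacement binding: 5 nM MYLK with 2 nM Eu-anti-GST antibody and 30 nM tracer 236 in kinase buffer A, 1 h at RT. The 665/615 nm emission ratio was plotted against inhibitor concentration; IC50 from variable-slope sigmoidal fit.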

The next assay has as its target T1, SYK kinase (Homo sapiens, UniProt P43405).
T1 construct: purchased Invitrogen, Carlsbad
The experiment in a line: SYK assay (OMNIA Kinase Assay, Invitrogen). In kind it is biochemical. To be noted: apparent Ki calculated from the IC50 using the Cheng-Prusoff equation; 1 mM ATP, 10 μM Peptide Substrate; read-out: SYK Activities: Ki. An outline of the steps: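 Reaction velocities were measured from kinetic fluorescence reads (360/485 nm, every 30 s over 30 min) of Mg2+-chelated SOX signal. Conditions were 1 mM ATP, 10 μM Omnia Tyr 7 peptide and 0.2 mM DTT at 30° C. Sigmoidal IC50 fits were converted to apparent Ki using Cheng-Prusoff.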

MYLK, sequence (Q15746 whole entry): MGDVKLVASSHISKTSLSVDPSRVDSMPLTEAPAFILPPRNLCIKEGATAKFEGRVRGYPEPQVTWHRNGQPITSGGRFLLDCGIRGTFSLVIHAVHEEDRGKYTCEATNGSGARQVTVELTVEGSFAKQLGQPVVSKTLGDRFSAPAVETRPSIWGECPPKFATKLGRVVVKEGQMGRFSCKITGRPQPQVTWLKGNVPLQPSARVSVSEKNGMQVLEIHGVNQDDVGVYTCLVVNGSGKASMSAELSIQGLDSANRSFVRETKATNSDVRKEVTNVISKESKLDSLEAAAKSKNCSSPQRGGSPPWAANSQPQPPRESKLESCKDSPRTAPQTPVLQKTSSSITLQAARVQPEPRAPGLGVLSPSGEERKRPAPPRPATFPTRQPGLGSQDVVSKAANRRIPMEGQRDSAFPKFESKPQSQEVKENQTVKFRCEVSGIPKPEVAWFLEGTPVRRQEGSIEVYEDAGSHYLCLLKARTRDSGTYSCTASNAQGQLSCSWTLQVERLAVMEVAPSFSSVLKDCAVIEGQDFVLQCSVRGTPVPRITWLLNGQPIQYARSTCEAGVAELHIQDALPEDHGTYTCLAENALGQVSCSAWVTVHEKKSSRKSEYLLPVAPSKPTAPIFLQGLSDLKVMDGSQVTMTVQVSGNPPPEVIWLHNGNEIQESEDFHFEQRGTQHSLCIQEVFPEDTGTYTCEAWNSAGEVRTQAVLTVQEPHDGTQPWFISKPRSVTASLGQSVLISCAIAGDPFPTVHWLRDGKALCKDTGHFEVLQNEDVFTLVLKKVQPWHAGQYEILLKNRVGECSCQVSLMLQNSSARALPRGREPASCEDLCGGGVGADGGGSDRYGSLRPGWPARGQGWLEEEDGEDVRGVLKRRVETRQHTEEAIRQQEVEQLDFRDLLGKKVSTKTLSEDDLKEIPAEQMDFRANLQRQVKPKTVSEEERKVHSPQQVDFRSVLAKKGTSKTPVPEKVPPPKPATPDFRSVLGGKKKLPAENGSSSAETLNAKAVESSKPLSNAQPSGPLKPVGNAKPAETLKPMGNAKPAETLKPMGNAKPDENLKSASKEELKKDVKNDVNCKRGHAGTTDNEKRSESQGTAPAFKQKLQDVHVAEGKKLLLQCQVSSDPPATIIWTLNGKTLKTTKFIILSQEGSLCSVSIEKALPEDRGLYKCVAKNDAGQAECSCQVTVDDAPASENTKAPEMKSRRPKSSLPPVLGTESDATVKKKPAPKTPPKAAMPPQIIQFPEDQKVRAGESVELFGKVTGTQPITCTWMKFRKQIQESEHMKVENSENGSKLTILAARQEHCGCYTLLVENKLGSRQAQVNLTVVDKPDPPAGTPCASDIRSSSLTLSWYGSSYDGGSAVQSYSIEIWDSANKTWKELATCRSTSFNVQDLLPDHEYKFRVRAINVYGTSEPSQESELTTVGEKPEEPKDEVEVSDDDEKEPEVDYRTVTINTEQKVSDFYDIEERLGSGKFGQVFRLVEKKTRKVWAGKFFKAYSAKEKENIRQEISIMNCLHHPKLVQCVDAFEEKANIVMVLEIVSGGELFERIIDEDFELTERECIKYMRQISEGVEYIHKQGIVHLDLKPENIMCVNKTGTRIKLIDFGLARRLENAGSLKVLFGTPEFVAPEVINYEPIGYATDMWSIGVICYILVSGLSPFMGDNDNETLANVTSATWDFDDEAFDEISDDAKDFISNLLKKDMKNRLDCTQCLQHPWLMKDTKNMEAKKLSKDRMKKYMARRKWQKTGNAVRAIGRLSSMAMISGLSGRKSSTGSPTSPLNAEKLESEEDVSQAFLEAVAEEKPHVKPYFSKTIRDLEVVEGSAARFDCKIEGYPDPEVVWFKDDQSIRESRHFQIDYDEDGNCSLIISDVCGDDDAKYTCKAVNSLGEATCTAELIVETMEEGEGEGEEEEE
LRRK2, sequence (Q5S007 970-2527 limits assumed): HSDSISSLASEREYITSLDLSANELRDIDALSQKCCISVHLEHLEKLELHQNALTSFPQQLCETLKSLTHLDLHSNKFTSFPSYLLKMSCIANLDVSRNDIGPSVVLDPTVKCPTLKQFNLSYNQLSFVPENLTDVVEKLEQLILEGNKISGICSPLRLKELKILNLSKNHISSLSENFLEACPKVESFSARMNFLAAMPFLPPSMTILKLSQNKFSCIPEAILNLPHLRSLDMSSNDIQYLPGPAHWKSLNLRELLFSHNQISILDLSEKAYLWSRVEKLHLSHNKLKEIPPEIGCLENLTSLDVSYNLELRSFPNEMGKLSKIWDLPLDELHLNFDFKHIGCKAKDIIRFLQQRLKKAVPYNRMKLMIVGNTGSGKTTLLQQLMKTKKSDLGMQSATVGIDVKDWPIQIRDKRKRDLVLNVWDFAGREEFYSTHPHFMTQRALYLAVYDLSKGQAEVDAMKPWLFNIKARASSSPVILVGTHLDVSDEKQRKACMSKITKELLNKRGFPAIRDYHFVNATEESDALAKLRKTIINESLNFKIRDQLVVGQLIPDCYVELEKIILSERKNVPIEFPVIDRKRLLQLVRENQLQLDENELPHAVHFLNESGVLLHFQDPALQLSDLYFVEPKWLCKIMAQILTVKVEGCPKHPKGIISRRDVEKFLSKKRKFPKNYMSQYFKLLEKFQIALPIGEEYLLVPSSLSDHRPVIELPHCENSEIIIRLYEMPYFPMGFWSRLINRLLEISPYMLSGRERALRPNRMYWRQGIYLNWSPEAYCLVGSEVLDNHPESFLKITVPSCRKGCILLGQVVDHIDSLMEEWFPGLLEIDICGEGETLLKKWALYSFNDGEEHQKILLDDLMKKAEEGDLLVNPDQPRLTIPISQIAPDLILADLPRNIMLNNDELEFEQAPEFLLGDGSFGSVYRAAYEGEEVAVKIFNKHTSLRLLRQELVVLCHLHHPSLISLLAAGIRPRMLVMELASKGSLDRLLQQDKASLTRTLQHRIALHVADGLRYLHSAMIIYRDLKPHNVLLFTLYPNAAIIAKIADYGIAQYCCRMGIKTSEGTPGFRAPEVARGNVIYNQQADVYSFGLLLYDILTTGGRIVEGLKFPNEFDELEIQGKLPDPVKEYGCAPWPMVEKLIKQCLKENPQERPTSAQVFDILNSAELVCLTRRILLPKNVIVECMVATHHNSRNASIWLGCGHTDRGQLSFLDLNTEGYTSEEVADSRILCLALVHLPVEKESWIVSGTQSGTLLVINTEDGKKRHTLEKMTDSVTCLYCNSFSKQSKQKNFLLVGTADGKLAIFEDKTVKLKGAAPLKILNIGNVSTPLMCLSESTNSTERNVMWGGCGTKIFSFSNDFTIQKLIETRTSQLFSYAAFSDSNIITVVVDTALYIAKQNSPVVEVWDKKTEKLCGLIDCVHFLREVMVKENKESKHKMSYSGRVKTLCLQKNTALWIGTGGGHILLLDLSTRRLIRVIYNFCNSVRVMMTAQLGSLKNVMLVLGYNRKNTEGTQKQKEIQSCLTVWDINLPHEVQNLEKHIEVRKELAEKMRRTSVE

As for `CN(C)c1ccc(Nc2nc3ccc(Br)cc3c3c[nH]nc23)cc1` [Example #84, N-(8-Bromo-2H-pyrazolo[3,4-c]quinolin-4-yl)-N′,N′-dimethyl-benzene-1,4-diamine], the IC50 – broadly, the concentration that gives 50% inhibition – is 100 to 1000 nM at LRRK2 and less than 5000 nM at MYLK. At SYK kinase, the Ki was 10 to 100 nM.

Regarding `COc1ccc2nc(Nc3cccc(N4CCNCC4)c3)c3n[nH]cc3c2c1` [Example #221, (8-Methoxy-2H-pyrazolo[3,4-c]quinolin-4-yl)-(3-piperazin-1-yl-phenyl)-amine], the IC50 was 100 to 1000 nM at LRRK2 and less than 5000 nM on MYLK. The Ki on SYK kinase is 100 to 1000 nM.

Consider `COc1ccc2nc(Nc3ccc(O)c(O)c3)c3n[nH]cc3c2c1` [Example #162, 4-(8-Methoxy-2H-pyrazolo[3,4-c]quinolin-4-ylamino)-benzene-1,2-diol], for which the IC50 at LRRK2 was 100 to 1000 nM; at MYLK, less than 5000 nM. Besides, the Ki at SYK kinase was 10 to 100 nM.

On to `COc1cccc2nc(Nc3ccc4c(c3)NC(=O)CC4)c3[nH]ncc3c12` [Example #339, 7-((9-methoxy-3H-pyrazolo[3,4-c]quinolin-4-yl)amino)-3,4-dihydroquinolin-2(1H)-one], for which the IC50 at LRRK2 was 10 to 100 nM; at MYLK it was less than 5000 nM. At SYK kinase, the Ki was 10 to 100 nM.

Take `COc1ccc2nc(Nc3ccc(C4CCN(C)CC4)cc3)c3n[nH]cc3c2c1` [Example #102, (8-Methoxy-2H-pyrazolo[3,4-c]quinolin-4-yl)-[4-(1-methyl-piperidin-4-yl)-phenyl]-amine]: the results for the IC50 on LRRK2 and on MYLK were 100 to 1000 nM and less than 5000 nM, respectively. At SYK kinase, the Ki was 10 to 100 nM.

`COc1ccc2nc(Nc3ccc(N4CCN(C(C)=O)CC4)cc3)c3n[nH]cc3c2c1` [Example #164, 1-{4-[4-(8-Methoxy-2H-pyrazolo[3,4-c]quinolin-4-ylamino)-phenyl]-piperazin-1-yl}-ethanone]: the values for the IC50 on LRRK2 and at MYLK were 10 to 100 nM and less than 5000 nM, respectively. Besides, on SYK kinase, the Ki was less than 10 nM.

As to `CCN1CCN(c2ccc(Nc3nc4c(OC)cccc4c4c[nH]nc34)cc2)CC1` [Example #239, [4-(4-Ethyl-piperazin-1-yl)-phenyl]-(6-methoxy-2H-pyrazolo[3,4-c]quinolin-4-yl)-amine], the IC50 at LRRK2 is 100 to 1000 nM; at MYLK it was less than 5000 nM. The Ki at SYK kinase is 10 to 100 nM.

As to `COc1ccc2nc(Nc3cccc(OCCN4CCNCC4)c3)c3n[nH]cc3c2c1` [Example #229, (8-Methoxy-2H-pyrazolo[3,4-c]quinolin-4-yl)-[3-(2-piperazin-1-yl-ethoxy)-phenyl]-amine], the IC50 at LRRK2 was 100 to 1000 nM; at MYLK, less than 5000 nM. Further, the Ki at SYK kinase was 100 to 1000 nM.

As to `COc1ccc2nc(Nc3ccc(N4CCN(CC(=O)O)CC4)cc3)c3n[nH]cc3c2c1` [Example #277, 2-(4-(4-((8-methoxy-2H-pyrazolo[3,4-c]quinolin-4-yl)amino)phenyl)piperazin-1-yl)acetic-acid], the IC50 on LRRK2 was 10 to 100 nM; on MYLK, less than 5000 nM. Further, the Ki at SYK kinase was 10 to 100 nM.

`COc1ccc2nc(Nc3ccc(OC)c(NC(C)=O)c3)c3n[nH]cc3c2c1` [Example #142, N-[2-Methoxy-5-(8-methoxy-2H-pyrazolo[3,4-c]quinolin-4-ylamino)-phenyl]-acetamide]: the IC50 at LRRK2 was 100 to 1000 nM; at MYLK, less than 5000 nM. Moreover, the Ki at SYK kinase is 10 to 100 nM.

As to `COc1cccc2nc(Nc3cccc(S(C)(=O)=O)c3)c3[nH]ncc3c12` [Example #338, 9-methoxy-N-(3-(methylsulfonyl)phenyl)-3H-pyrazolo[3,4-c]quinolin-4-amine], the IC50 is 100 to 1000 nM on LRRK2 and less than 5000 nM on MYLK. Besides, the Ki on SYK kinase was 100 to 1000 nM.

As to `COc1ccc2c(c1)nc(Nc1ccc3c(c1)NC(=O)CO3)c1n[nH]cc12` [Example #266, 6-((7-methoxy-2H-pyrazolo[3,4-c]quinolin-4-yl)amino)-2H-benzo[b][1,4]oxazin-3(4H)-one], the IC50 was 10 to 100 nM at LRRK2 and less than 5000 nM on MYLK. Further, the Ki on SYK kinase was less than 10 nM.

For the molecule `COc1ccc(Nc2nc3cc(OC)c(OC)cc3c3c[nH]nc23)cc1O` [Example #152, 5-(7,8-Dimethoxy-2H-pyrazolo[3,4-c]quinolin-4-ylamino)-2-methoxy-phenol], the half-inhibitory concentration (IC50) at LRRK2 is 100 to 1000 nM; at MYLK it was less than 5000 nM. On SYK kinase, the Ki was 10 to 100 nM.

Take `COc1cccc2nc(Nc3ccc(N4CCOCC4)cc3)c3n[nH]cc3c12` [Example #202, (9-Methoxy-2H-pyrazolo[3,4-c]quinolin-4-yl)-(4-morpholin-4-yl-phenyl)-amine]: the figures for the IC50 at LRRK2 and at MYLK were 10 to 100 nM and less than 5000 nM, respectively. Further, on SYK kinase, the Ki was 10 to 100 nM.

With `COc1ccc2nc(Nc3ccc(C(=O)N4CCOCC4)cc3)c3n[nH]cc3c2c1` [Example #232, [4-(8-Methoxy-2H-pyrazolo[3,4-c]quinolin-4-ylamino)-phenyl]-morpholin-4-yl-methanone], the values for the IC50 on LRRK2 and at MYLK were 100 to 1000 nM and less than 5000 nM, respectively. At SYK kinase, the Ki was 10 to 100 nM.

For the molecule `COc1cccc2nc(Nc3ccc(N4CCN(C)CC4)cc3)c3n[nH]cc3c12` [Example #201, (9-Methoxy-2H-pyrazolo[3,4-c]quinolin-4-yl)-[4-(4-methyl-piperazin-1-yl)-phenyl]-amine], the IC50 is 100 to 1000 nM at LRRK2 and less than 5000 nM at MYLK. The Ki on SYK kinase was 10 to 100 nM.

For `COc1ccc2nc(Nc3ccc(C(=O)N(C)C)cc3)c3n[nH]cc3c2c1` [Example #303, 4-((8-methoxy-2H-pyrazolo[3,4-c]quinolin-4-yl)amino)-N,N-dimethylbenzamide], the figures for the IC50 on LRRK2 and on MYLK were 10 to 100 nM and less than 5000 nM, respectively. Also, on SYK kinase, the Ki is 100 to 1000 nM.

For the molecule `COc1ccc2nc(Nc3ccc(OCCN(C)C)nc3)c3n[nH]cc3c2c1` [Example #245, [6-(2-Dimethylamino-ethoxy)-pyridin-3-yl]-(8-methoxy-2H-pyrazolo[3,4-c]quinolin-4-yl)-amine], the IC50 was 100 to 1000 nM at LRRK2 and less than 5000 nM at MYLK. For the same molecule, the Ki at SYK kinase was 100 to 1000 nM.

For `COc1cccc2c1nc(Nc1ccc3c(c1)NC(=O)CCC3)c1n[nH]cc12` [Example #241, 8-((6-methoxy-2H-pyrazolo[3,4-c]quinolin-4-yl)amino)-4,5-dihydro-1H-benzo[b]azepin-2(3H)-one], the values for the IC50 at LRRK2 and on MYLK were 100 to 1000 nM and less than 5000 nM, respectively. In addition, the Ki on SYK kinase is 10 to 100 nM.

Take `COc1ccc2c(c1)nc(Nc1ccc3c(c1)NC(=O)CCC3)c1n[nH]cc12` [Example #257, 8-((7-methoxy-2H-pyrazolo[3,4-c]quinolin-4-yl)amino)-4,5-dihydro-1H-benzo[b]azepin-2(3H)-one]: the IC50 at LRRK2 was 100 to 1000 nM; on MYLK, less than 5000 nM. Also, the Ki on SYK kinase is less than 10 nM.

For the molecule `COc1ccc2nc(Nc3ccc(OC)c(OC)c3)c3n[nH]cc3c2c1` [Example #53, (3,4-Dimethoxy-phenyl)-(8-methoxy-2H-pyrazolo[3,4-c]quinolin-4-yl)-amine], the figures for the half-maximal inhibitory concentration (IC50) on LRRK2 and at MYLK were 100 to 1000 nM and less than 5000 nM, respectively. Further, the Ki at SYK kinase was 10 to 100 nM.

`COc1ccc2nc(Nc3cccc(N)c3)c3n[nH]cc3c2c1` [Example #44, N-(8-Methoxy-2H-pyrazolo[3,4-c]quinolin-4-yl)-benzene-1,3-diamine]: the values for the half-maximal inhibitory concentration (IC50) on LRRK2 and at MYLK were 10 to 100 nM and less than 5000 nM, respectively. Also, on SYK kinase, the Ki was 10 to 100 nM.

With `COc1cccc2c1nc(Nc1ccc3[nH]c(C)nc3c1)c1n[nH]cc12` [Example #248, (6-Methoxy-2H-pyrazolo[3,4-c]quinolin-4-yl)-(2-methyl-1H-benzoimidazol-5-yl)-amine], the IC50 on LRRK2 is 100 to 1000 nM; at MYLK it was less than 5000 nM. The Ki at SYK kinase was 100 to 1000 nM.

On to `COc1ccc2nc(Nc3ccc4c(c3)nc3n4CCN(C)C3)c3n[nH]cc3c2c1` [Example #160, (8-Methoxy-2H-pyrazolo[3,4-c]quinolin-4-yl)-(2-methyl-1,2,3,4-tetrahydro-benzo[4,5]imidazo[1,2-a]pyrazin-8-yl)-amine], for which the IC50 at LRRK2 was 100 to 1000 nM; on MYLK, less than 5000 nM. Besides, the Ki on SYK kinase was 10 to 100 nM.

Regarding `COc1ccc2nc(Nc3ccc(CCN4CCOCC4)cc3)c3n[nH]cc3c2c1` [Example #193, (8-Methoxy-2H-pyrazolo[3,4-c]quinolin-4-yl)-[4-(2-morpholin-4-yl-ethyl)-phenyl]-amine], the 50% inhibitory concentration (IC50) at LRRK2 was 100 to 1000 nM; on MYLK it was less than 5000 nM. Also, the Ki on SYK kinase was 10 to 100 nM.

On to `COc1cccc2nc(Nc3ccc(N4CCN(C(C)=O)CC4)cc3)c3[nH]ncc3c12` [Example #340, 1-(4-(4-((9-methoxy-3H-pyrazolo[3,4-c]quinolin-4-yl)amino)phenyl)piperazin-1-yl)ethan-1-one], for which the IC50 on LRRK2 was 10 to 100 nM; on MYLK, less than 5000 nM. Also, on SYK kinase, the Ki was 10 to 100 nM.

Turning to `COc1ccc(Nc2nc3c(OC)cccc3c3c[nH]nc23)cc1OC` [Example #167, (3,4-Dimethoxy-phenyl)-(6-methoxy-2H-pyrazolo[3,4-c]quinolin-4-yl)-amine], the IC50 on LRRK2 is 100 to 1000 nM; at MYLK, less than 5000 nM. Further, the Ki on SYK kinase is 10 to 100 nM.

For `COc1cccc2c1nc(Nc1ccc3c(c1)OCCO3)c1n[nH]cc12` [Example #258, (2,3-Dihydro-benzo[1,4]dioxin-6-yl)-(6-methoxy-2H-pyrazolo[3,4-c]quinolin-4-yl)-amine], the IC50 on LRRK2 is 100 to 1000 nM; at MYLK, less than 5000 nM. Moreover, on SYK kinase, the Ki is 100 to 1000 nM.
